In ChEMBL document CHEMBL3822418, “Enriching screening libraries with bioactive fragment space” (Bioorg Med Chem Lett, 2016):

Target: Casein kinase II subunit alpha (Homo sapiens, UniProt P68400)
Test: Inhibition of human CK2alpha (2 to 391 residues) using [33P]-ATP by scintillation counting based radioactive filter binding assay

Casein kinase II subunit alpha, sequence (P68400 whole entry, the tested form may be a part): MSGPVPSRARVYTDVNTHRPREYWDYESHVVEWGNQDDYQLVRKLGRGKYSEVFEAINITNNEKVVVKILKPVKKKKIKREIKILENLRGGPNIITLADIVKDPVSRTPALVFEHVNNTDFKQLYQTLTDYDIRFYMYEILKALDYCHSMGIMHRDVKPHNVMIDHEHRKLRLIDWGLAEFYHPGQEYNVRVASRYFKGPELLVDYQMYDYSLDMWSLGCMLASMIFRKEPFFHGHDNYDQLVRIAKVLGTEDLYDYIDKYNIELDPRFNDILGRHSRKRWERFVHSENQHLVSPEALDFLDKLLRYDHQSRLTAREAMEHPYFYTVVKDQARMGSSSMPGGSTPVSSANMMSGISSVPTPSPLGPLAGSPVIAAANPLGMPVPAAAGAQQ

Row | SMILES | IC50
1 | O=C(Nc1ccccc1)c1n[nH]c2ccc([N+](=O)[O-])cc12 | > 200 µM
2 | Cc1cc2cc(NC(=O)c3n[nH]c4ccccc34)ccc2[nH]1 | > 200 µM
3 | O=C(Nc1n[nH]c2cccc(F)c12)c1ccc2c(c1)CCO2 | > 200 µM
4 | CCc1nnc(-c2cccc(NC(=O)c3n[nH]c4ccccc34)c2)o1 | > 200 µM
